Experimental data from US7935532B2, “DWF4 polynucleotides, polypeptides and uses thereof” (Arizona Board of Regents for and on behalf of Arizona State …, priority 1999, dated 2011).

Tests used:
dwf4 seedlings [1] = assay: Feeding of BR biosynthetic intermediates to dwf4 seedlings in liquid media (rescue, dose-response); type: in vivo, Arabidopsis thaliana; settings: for rescue of the light-grown dwf4 phenotype: liquid media
Method: In view of the results described above, we hypothesized that DWF4 mediates one or more of several steroid hydroxylation steps in the BR biosynthetic pathway. To test this, dwf4 was grown on all of the available biosynthetic intermediates in the BR biosynthetic pathways and examined to ascertain which intermediates could rescue the dwarf phenotype. In addition to the intermediates belonging to the early C-6 oxidation and late C-6 oxidation pathways (Choi et al. (1997), supra), 22α-hydroxycampesterol (22-OHCR), 6α-hydroxycastasterone (6-OHCT) (Takatsuto et al. (1997) J. Chem. Res. (synop.) 11:418-419), and […] (S. Takatsuto, T. Watanabe, T. Noguchi, and S. Fujioka, unpublished data) were synthesized and tested.
Germinated seedlings were transferred to media supplemented with one of the intermediates or BL to pinpoint the step catalyzed by DWF4. […] In addition, the rescued seedlings were less green than the dwarfs. These experiments were conducted in liquid media. Feeding experiments performed in the dark yielded similar results.
However, on CT the overall morphology of dwf4 was essentially rescued to wild-type phenotype at 3×10^−7 M and higher, whereas with 6-deoxoCT, rescue occurred with as little as 10^−7 M and may have even been inhibitory at higher concentrations. Of particular interest is the more dramatic response of the epicotyls versus the smaller response of the hypocotyls to CT. This same phenomenon was true for seedlings treated with >10^−7 M 6-deoxoCT.
A higher concentration of CT for dark-grown seedlings, compared with light-grown seedlings, 3×10^−6 M (FIG. 5B), was required to convert the hypocotyl to a length similar to that of the wild type.

6-week-old dwf4 plants = assay: Treatment of soil-grown mature dwf4 plants with BR intermediates and BL (pedicel elongation); type: in vivo, Arabidopsis thaliana
Method: To determine whether the results of the seedling feeding experiments could be applicable to soil-grown mature plants, 6-week-old dwf4 plants were treated with BR intermediates and BL. Concentrations of applied intermediates were adjusted empirically to optimize responses. Consistent with the results obtained from the seedlings experiments, only 22α-hydroxylated compounds can rescue the dwf4 phenotype. The elongation response was only observed in the young tissues of the inflorescence, regardless of whether the BRs were applied locally or sprayed over the entire plant. In contrast to the striking elongation of the peduncles and pedicels, fertility was not restored by BR treatment. The sterility in dwf4 is hypothesized to be mechanical, which means that the filaments are shorter than the carpels such that the pollen is shed onto the ovary walls rather than onto the stigmatic surface. In fact, if dwf4 plants are hand pollinated using […], fertility increases.

dwf8-1 = assay: Feeding of 22-OHCR to dwf8-1 dwarf mutant; type: in vivo, Arabidopsis thaliana; settings: unpublished data
rice lamina = settings: Fujioka et al. (1995b); cited from earlier work
dwf4 seedlings [2] = assay: Brassinolide response of seedlings in liquid culture (hypocotyl length); type: in vivo, Arabidopsis thaliana; settings: liquid medium, 10^−6 M BL
Method: Gibberellic acid (GA) response was assayed on plants grown individually in 5.7-cm pots. Once inflorescences reached 1 to 2 mm in height, they were sprayed weekly with 1 mM GA3 (Sigma). Control plants were sprayed with water. One week after the third spraying, plants were collected, and the length of the main stem was measured between the top of the rosette and the base of the most distal pedicel; 13 to 18 plants of each line were measured per treatment. Auxin response was tested by growing seedlings for 10 days under 16 hr of light on vertically oriented agar plates containing various concentrations of 2,4-D (Gibco, Grand Island, N.Y.). Genetic interaction with the hy2 mutation was tested by growing seedlings under continuous light for 7 days. Brassinolide (BL) response was determined in liquid culture, as described by Clouse et al. (1993) supra, except that three or four seedlings were grown in each well of a 24-well culture plate for 7 days. Measurements were taken for 10 to 20 seedlings for each genotype and condition, under a dissection microscope fitted with an ocular micrometer.
In the course of our studies, we prepared a genomic library from dwf4-1, from which we isolated a clone in which a fragment of T-DNA interrupts a gene encoding a putative cytochrome P450 steroid hydroxylase.

SMILES	rescue of the light-grown dwf4 phenotype (dwf4 seedlings [1]; light-grown seedlings)	effectiveness in rescuing the dwf4 phenotype, light versus dark (dwf4 seedlings [1]; unpublished data)	pedicel elongation response (6-week-old dwf4 plants; 22-OHCR 10^−5 M)	rescue of dwf8-1 dwarf mutant (dwf8-1)	concentration required to convert the dwf4 hypocotyl to a length similar to wild type (dwf4 seedlings [1]; dark-grown seedlings) [µM]	concentration at which dwf4 overall morphology is rescued to wild-type phenotype (dwf4 seedlings [1]; light-grown seedlings, dose-response)	activity relative to 6-oxoCN (rice lamina) [times]	bioactivity in dwf4 pedicel elongation (6-week-old dwf4 plants; BL 10^−7 M)	degree of pedicel elongation response (6-week-old dwf4 plants; BL 10^−7 M versus precursors)	dwf4 hypocotyl height (dwf4 seedlings [2])
CC(C)[C@H](C)C[C@H](O)[C@@H](C)[C@H]1CC[C@H]2[C@@H]3CC=C4C[C@@H](O)CC[C@]4(C)[C@H]3CC[C@]12C [22-OHCR, 22α-hydroxycampesterol]	rescued	more effective in the light	dramatic elongation response	not rescued	–	–	–	–	–	–
CC(C)[C@H](C)C[C@H](O)[C@@H](C)[C@H]1CC[C@H]2[C@@H]3CC(=O)[C@H]4C[C@@H](O)CC[C@]4(C)[C@H]3CC[C@]12C [CT, Cathasterone]	rescued	–	–	–	3	≥ 3×10^−7 M	~500	–	–	–
CC(C)[C@H](C)[C@@H](O)[C@H](O)[C@@H](C)[C@H]1CC[C@H]2[C@@H]3COC(=O)[C@H]4C[C@H](O)[C@H](O)C[C@]4(C)[C@H]3CC[C@]12C [BL, 2α, 3α, 22(R), 23(R)-tetrahydroxy-24(S)-methyl-B-homo-7-oxa-5α-cholestan-6-one]	–	–	–	–	–	–	–	highest bioactivity	approximately the same degree of response as its precursor compounds at 10^−6 M	restored to wild-type height
